Laboratory results: patent US10137182B2, “Cancer vaccines and vaccination methods” (ImmunoCellular Therapeutics, Ltd., priority 2013, dated 2018)
Entries after “also recorded” stand apart in the source; their conditions may differ. Where two headings read alike, the source gives them in different places. Where no end group is shown, it is not given here.

Tests used:
[1] = tested on: HLA-A2+ human ovarian cancer stem cells 1031CSC
Procedure: (§1) Human monocyte-derived DCs were generated using previously described methods. […] The DCs were washed and plated in 6-well plates at a concentration of 5 ×10^6 cells/well IFN-γ (1000 unit/ml), and then monophosphoryl lipid A (MPLA, 20-50μg/ml) (Cat# L6895, Sigma, St. Louis) was added into the wells to mature the DC for 24hr or 48 hrs.
(§2) In order to evaluate antigen-specific immune responses, CD8^+ T cells were isolated from fresh or frozen apheresis by positive selection using Dynabeads® CD8 Positive Isolation Kit (Life Technologies, Grand Island, N.Y.) and co-cultured with autologous mDC for four weeks. DCs were added weekly. Briefly, mDCs were pulsed with synthetic peptides (10 μg/μl) for 6-8 hours at 37° C., and then treated with 20 ug/ml Mitomycin C (Sigma-Aldrich, St. Louis, Mo.) for 25 min at 37° C. and 5% CO2. The mDCs (5×10^4 cells/well) were co-cultured with autologous CD8^+ T cells (5×10^5 cells/well) in a 96-well plate at 37° C., 5% CO2 in a final volume of 200 μl CTL medium (IMDM with 0.24 mM Asparagine, 0.55 mM L-Arginine, 1.5 mM L-Glutamine and 10% heat inactivated human AB serum). Half of the medium was replaced every other day by fresh culture medium containing 40 IU/ml IL-2 and 20 ng/ml IL-7, the 3rd and 4th week 40 U/ml of IL-2 was replaced with 25 ng/ml IL-15. In the culture medium, peptides could also be added to the culture well at a final concentration of 1-2 μg/ml.
(§3) DDAO-SE labeled target cells were mixed with effector cells at a 1:10 ratio in round-bottom 96 well plate and incubated overnight at 37° C., 5% CO2. The cells were washed, fixed, and permeabilized with Fix/Perm solution (BD Biosciences) and then stained for 30 minutes at 4° C. with 10 μl PE-labeled anti-cleaved caspase-3 monoclonal antibody, followed by Cyan flow cytometric analysis (Beckman Coulter, Inc).

[2] = tested on: HLA-A2+ human ovarian cancer stem cells 882CSC
Procedure: as §1, §2, §3

[3] = Immunogenicity in vitro of A2 peptide epitopes (Table 1); details: A2 peptide epitope(s) of Exemplary Vaccine 1; no method given
HLA-A*0201 molecules = HLA-A*0201 molecules (Homo sapiens, UniProt P04439, D140Y/D185E/D98H/E176V/E277Q/G131W/G231S/I119V/I121R/I166T/I218V/L300P/L318F/N151K/N90K/P208A/P217A/Q86G/Q94H/R138H/R169H/T345S); experiment: T2 cell binding assay of HLA-A2 peptides (upregulation of HLA-A2 on T2 cells, MFI by flow cytometry); details: for binding affinity to HLA-A*0201 molecules / T2 cells (in words): peptide 75 μg/ml, overnight
[4] = tested on: HLA-A2+ human ovarian cancer stem cells 1031CSC; experiment: Killing assay (DDAO-SE / cleaved caspase-3) with peptide-specific CTLs against 1031CSC; details: CTLs induced by peptide-pulsed HLA-A2+ DC; target:effector 1:10, overnight
Procedure: as §1, §2, §3

[5] = tested on: HLA-A2+ human ovarian cancer stem cells 882CSC; experiment: Killing assay (DDAO-SE / cleaved caspase-3) with peptide-specific CTLs against 882CSC; details: CTLs induced by peptide-pulsed HLA-A2+ DC; target:effector 1:10, overnight
Procedure: as §1, §2, §3

Q: Which “cytotoxicity of peptide-specific CTLs against 1031CSC” value (from here on “cytotoxicity … against 1031CSC”) [1] does the source give for `CSCC[C@H](NC(=O)[C@@H](N)C(C)C)C(=O)N[C@@H](C)C(=O)NCC(=O)N[C@H](C(=O)NCC(=O)N[C@@H](CO)C(=O)N1CCC[C@H]1C(=O)N[C@@H](Cc1ccc(O)cc1)C(=O)N[C@H](C(=O)O)C(C)C)C(C)C` [HER2 p773] here?
A: Its value is “can efficiently recognize and lyse”.

Q: And the “cytotoxicity of peptide-specific CTLs against 882CSC” value (“cytotoxicity … against 882CSC” for short) [2]?
A: The value was “can efficiently recognize and lyse”.

Q: What does the source list for “EIWTHSYKV (listed as Homo sapiens) [FOLR1 p191]”?
A: Immunogenicity in vitro [3]: Yes; MFI index (relative binding affinity fluorescence index, FI) (HLA-A*0201 molecules; T2 cells incubated overnight with peptide 75 μg/ml and β2-microglobulin, FI = MFI(peptide)−MFI(untreated cells)/MFI(untreated cells)): less than 1; binding affinity to HLA-A*0201 molecules / T2 cells (in words) (HLA-A*0201 molecules): lower affinity binding; binding affinity to HLA-A*0201 molecules / T2 cells (in words) (HLA-A*0201 molecules; listed as FOLR1p191): low affinity; also recorded: lower binding capacity

Q: Which results are given for “KVLEYVIKV (listed as Homo sapiens) [MAGE-A1 p278]”?
A: Immunogenicity in vitro [3]: Yes; binding affinity to HLA-A*0201 molecules / T2 cells (in words) (HLA-A*0201 molecules): high affinity binding

Q: For SLLFLLFSL (listed as Homo sapiens), which Immunogenicity in vitro [3] is on record?
A: Its Immunogenicity in vitro is “Yes”.

Q: Which Immunogenicity in vitro [3] does the source give for SLLMWITQC [NY-ESO-1 p157] here?
A: The Immunogenicity in vitro was “Yes”.

Q: For TLADFDPRV [EphA2 p883], which “cytotoxicity … against 1031CSC” value [4] is on record?
A: The value was “can efficiently recognize and lyse”.

Q: What about the “cytotoxicity … against 882CSC” value [5] of the same molecule?
A: The value was “can efficiently recognize and lyse”.

Q: With “VLPLTVAEV (listed as Homo sapiens) [mesothelin p531]” as the molecule, how does the Immunogenicity in vitro [3] read?
A: The Immunogenicity in vitro was “Yes”.

Q: What about the “binding affinity to HLA-A*0201 molecules / T2 cells (in words)” value (HLA-A*0201 molecules) of the same molecule?
A: The value was “high affinities”.

Q: And the “binding affinity to HLA-A*0201 molecules / T2 cells (in words)” value (HLA-A*0201 molecules; listed as mesothelinp531)?
A: Its value is “high affinity binding”.

Q: With WLPFGFILI [IL-13Rα2 p345] as the molecule, how does the “cytotoxicity … against 1031CSC” value [4] read?
A: The value was “can efficiently recognize and lyse”.

Q: And the “cytotoxicity … against 882CSC” value [5]?
A: Its value is “can efficiently recognize and lyse”.
